Data published in the supplement of paper PMC10307832.

What was measured:
Test in all cases: relative viability (nuclei count vs DMSO), 5 days (fraction); higher = more cells survive
[1] = tested on: NCI-H650
Outline: (§1)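 The day after seeding in 1536-well plates, lung cancer cell lines were treated by pin tool with a single drug, or with a fixed anchor-drug dose together with five library-drug doses (not always all listed) in √10 steps. After 5 days, a combined fix-and-stain solution (final 0.05% Triton X-100, 1% formaldehyde, 1 ug/ml Hoechst) was added. Nuclei counted on 4× images gave relative viability as treated counts over vehicle counts, reported as the median of duplicate plates.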

[2] = tested on: NCI-H520
Outline: as §1

[3] = tested on: NCI-H1651
Outline: as §1

[4] = tested on: NCI-H838
Outline: as §1

[5] = tested on: NCI-H1944
Outline: as §1

[6] = tested on: RERF-LC-KJ
Outline: as §1

[7] = tested on: NCI-H1623
Outline: as §1

[8] = tested on: NCI-H1299
Outline: as §1

[9] = tested on: NCI-H1648
Outline: as §1

[10] = tested on: IA-LM
Outline: as §1

[11] = tested on: NCI-H1703
Outline: as §1

[12] = tested on: EBC-1
Outline: as §1

[13] = tested on: Calu-6
Outline: as §1

[14] = tested on: A549
Outline: as §1

`CCN(CC)CCCCNc1ncc2cc(-c3cc(OC)cc(OC)c3)c(NC(=O)NC(C)(C)C)nc2n1` + Cc1nc(Nc2ncc(C(=O)Nc3c(C)cccc3Cl)s2)cc(N2CCN(CCO)CC2)n1 [Dasatinib] (partner 0.075 µM) was tested, and the relative viability ([1]; first compound 0.01 µM) was 0.368, the relative viability ([1]; first compound 0.03162 µM) was 0.454 and the relative viability ([1]; first compound 0.1 µM) was 0.468. The relative viability ([1]; first compound 0.3162 µM) was 0.48, the relative viability ([1]; first compound 1 µM) was 0.427 and the relative viability ([2]; first compound 0.01 µM) was 0.182. The relative viability ([2]; first compound 0.03162 µM) was 0.2, the relative viability ([2]; first compound 0.1 µM) was 0.216 and the relative viability ([2]; first compound 0.3162 µM) was 0.159. For the same compound, the relative viability ([2]; first compound 1 µM) was 0.162, the relative viability ([3]; first compound 0.01 µM) was 0.465 and the relative viability ([3]; first compound 0.03162 µM) was 0.448. For the same compound, the relative viability ([3]; first compound 0.1 µM) was 0.486, the relative viability ([3]; first compound 0.3162 µM) was 0.47 and the relative viability ([3]; first compound 1 µM) was 0.288. It also gave a relative viability ([4]; first compound 0.01 µM) of 0.259, a relative viability ([4]; first compound 0.03162 µM) of 0.305 and a relative viability ([4]; first compound 0.1 µM) of 0.307. For the same compound, the relative viability ([4]; first compound 0.3162 µM) was 0.305, the relative viability ([4]; first compound 1 µM) was 0.246 and the relative viability ([5]; first compound 0.01 µM) was 0.197. The relative viability ([5]; first compound 0.03162 µM) was 0.212, the relative viability ([5]; first compound 0.1 µM) was 0.22 and the relative viability ([5]; first compound 0.3162 µM) was 0.236. The relative viability ([5]; first compound 1 µM) was 0.196, the relative viability ([6]; first compound 0.01 µM) was 0.783 and the relative viability ([6]; first compound 0.03162 µM) was 1. It also gave a relative viability ([6]; first compound 0.1 µM) of 0.843, a relative viability ([6]; first compound 0.3162 µM) of 0.947 and a relative viability ([6]; first compound 1 µM) of 0.738. It also gave a relative viability ([7]; first compound 0.01 µM) of 0.504, a relative viability ([7]; first compound 0.03162 µM) of 0.449 and a relative viability ([7]; first compound 0.1 µM) of 0.579. It also gave a relative viability ([7]; first compound 0.3162 µM) of 0.571 and a relative viability ([7]; first compound 1 µM) of 0.516.

`O=c1cc(N2CCOCC2)oc2c(-c3cccc4c3sc3ccccc34)cccc12` + O=C(c1cc(Cc2n[nH]c(=O)c3ccccc23)ccc1F)N1CCN(C(=O)C2CC2)CC1 [Olaparib] (partner 8 µM) showed a relative viability ([1]; first compound 0.01 µM) of 0.424, a relative viability ([1]; first compound 0.03162 µM) of 0.38 and a relative viability ([1]; first compound 0.3162 µM) of 0.381. For the same compound, the relative viability ([1]; first compound 1 µM) was 0.4, the relative viability ([8]; first compound 0.01 µM) was 0.961 and the relative viability ([8]; first compound 0.03162 µM) was 0.946. It also gave a relative viability ([8]; first compound 0.1 µM) of 0.985, a relative viability ([8]; first compound 0.3162 µM) of 0.974 and a relative viability ([8]; first compound 1 µM) of 0.917. It also gave a relative viability ([9]; first compound 0.03162 µM) of 0.787, a relative viability ([9]; first compound 0.1 µM) of 1.28 and a relative viability ([9]; first compound 0.3162 µM) of 0.936. It also gave a relative viability ([9]; first compound 1 µM) of 1.17, a relative viability ([2]; first compound 0.01 µM) of 0.42 and a relative viability ([2]; first compound 0.03162 µM) of 0.406. It also gave a relative viability ([2]; first compound 0.1 µM) of 0.366, a relative viability ([2]; first compound 0.3162 µM) of 0.351 and a relative viability ([2]; first compound 1 µM) of 0.338. The relative viability ([3]; first compound 0.01 µM) was 0.19, the relative viability ([3]; first compound 0.03162 µM) was 0.188 and the relative viability ([3]; first compound 0.1 µM) was 0.179. The relative viability ([3]; first compound 0.3162 µM) was 0.178, the relative viability ([3]; first compound 1 µM) was 0.168 and the relative viability ([10]; first compound 0.01 µM) was 0.883. The relative viability ([10]; first compound 0.03162 µM) was 0.941, the relative viability ([10]; first compound 0.1 µM) was 0.766 and the relative viability ([10]; first compound 0.3162 µM) was 0.793. For the same compound, the relative viability ([10]; first compound 1 µM) was 0.769, the relative viability ([11]; first compound 0.01 µM) was 0.548 and the relative viability ([11]; first compound 0.03162 µM) was 0.274. The relative viability ([11]; first compound 0.1 µM) was 0.411, the relative viability ([11]; first compound 0.3162 µM) was 0.446 and the relative viability ([11]; first compound 1 µM) was 0.511. It also gave a relative viability ([12]; first compound 0.01 µM) of 0.709, a relative viability ([12]; first compound 0.03162 µM) of 0.667 and a relative viability ([12]; first compound 0.1 µM) of 0.757. For the same compound, the relative viability ([12]; first compound 0.3162 µM) was 0.788, the relative viability ([12]; first compound 1 µM) was 0.624 and the relative viability ([4]; first compound 0.01 µM) was 0.753. It also gave a relative viability ([4]; first compound 0.03162 µM) of 0.775, a relative viability ([4]; first compound 0.1 µM) of 0.851 and a relative viability ([4]; first compound 0.3162 µM) of 0.769. The relative viability ([4]; first compound 1 µM) was 0.749, the relative viability ([13]; first compound 0.01 µM) was 0.614 and the relative viability ([13]; first compound 0.03162 µM) was 0.606. For the same compound, the relative viability ([13]; first compound 0.1 µM) was 0.602, the relative viability ([13]; first compound 0.3162 µM) was 0.484 and the relative viability ([13]; first compound 1 µM) was 0.657. For the same compound, the relative viability ([5]; first compound 0.01 µM) was 0.438, the relative viability ([5]; first compound 0.03162 µM) was 0.406 and the relative viability ([5]; first compound 0.1 µM) was 0.4. For the same compound, the relative viability ([5]; first compound 0.3162 µM) was 0.384, the relative viability ([5]; first compound 1 µM) was 0.393 and the relative viability ([6]; first compound 0.01 µM) was 1.03. For the same compound, the relative viability ([6]; first compound 0.03162 µM) was 0.979, the relative viability ([6]; first compound 0.1 µM) was 0.965 and the relative viability ([6]; first compound 0.3162 µM) was 0.703. It also gave a relative viability ([6]; first compound 1 µM) of 0.893, a relative viability ([14]; first compound 0.01 µM) of 0.429 and a relative viability ([14]; first compound 0.03162 µM) of 0.31. It also gave a relative viability ([14]; first compound 0.1 µM) of 0.295, a relative viability ([14]; first compound 0.3162 µM) of 0.356 and a relative viability ([14]; first compound 1 µM) of 0.268.
